Columns and labels:
[1] = test system: MALME-3M; assay: NCI one-dose screening, melanoma MALME-3M; format: cell-based, human; conditions: 10 μM
[2] = test system: RXF, 393; assay: NCI one-dose screening, renal cancer RXF, 393; format: cell-based, human; conditions: 10 μM
[3] = test system: HOP-62; assay: NCI one-dose screening, non-small cell lung cancer HOP-62; format: cell-based, human; conditions: 10 μM
[4] = test system: SN12C; assay: NCI one-dose screening, renal cancer SN12C; format: cell-based, human; conditions: 10 μM
[5] = test system: SR; assay: NCI one-dose screening, leukemia SR; format: cell-based, human; conditions: 10 μM
[6] = test system: PC-3 prostate cancer cell line; assay: SRB assay cell viability, PC-3 prostate cancer cell line; format: cell-based, human; conditions: Homo sapiens, PC-3 prostate cancer cell line, Table II prints no unit, μM printed, read-out: SRB assay: 50% inhibition of cancer cell proliferation of sample concentration (IC50) of PC-3 prostate cancer cell line
[7] = test system: KM12; assay: NCI one-dose screening, colon cancer KM12; format: cell-based, human; conditions: 10 μM
[8] = test system: MDA-MB-468; assay: NCI one-dose screening, breast cancer MDA-MB-468; format: cell-based, human; conditions: 10 μM
[9] = test system: OVCAR-5; assay: NCI one-dose screening, ovarian cancer OVCAR-5; format: cell-based, human; conditions: 10 μM
[10] = test system: SK-MEL-28; assay: NCI one-dose screening, melanoma SK-MEL-28; format: cell-based, human; conditions: 10 μM
[11] = test system: SK-MEL-5; assay: NCI one-dose screening, melanoma SK-MEL-5; format: cell-based, human; conditions: 10 μM
[12] = test system: OVCAR-3; assay: NCI one-dose screening, ovarian cancer OVCAR-3; format: cell-based, human; conditions: 10 μM
[13] = test system: UACC-257; assay: NCI one-dose screening, melanoma UACC-257; format: cell-based, human; conditions: 10 μM
[14] = test system: HCT-15; assay: NCI one-dose screening, colon cancer HCT-15; format: cell-based, human; conditions: 10 μM
[15] = test system: ACHN; assay: NCI one-dose screening, renal cancer ACHN; format: cell-based, human; conditions: 10 μM
[16] = test system: CCRF-CEM; assay: NCI screening platform one-dose single concentration screening, leukemia CCRF-CEM; format: cell-based, human; conditions: 10 μM
[17] = test system: HCT-116; assay: NCI one-dose screening, colon cancer HCT-116; format: cell-based, human; conditions: 10 μM
[18] = test system: NCI-H23; assay: NCI one-dose screening, non-small cell lung cancer NCI-H23; format: cell-based, human; conditions: 10 μM
[19] = test system: NCI-H522; assay: NCI one-dose screening, non-small cell lung cancer NCI-H522; format: cell-based, human; conditions: 10 μM
[20] = test system: M14; assay: NCI one-dose screening, melanoma M14; format: cell-based, human; conditions: 10 μM
[21] = test system: NCI-H322M; assay: NCI one-dose screening, non-small cell lung cancer NCI-H322M; format: cell-based, human; conditions: 10 μM; Non-small cell lung cancer
[22] = test system: UO-31; assay: NCI one-dose screening, renal cancer UO-31; format: cell-based, human; conditions: 10 μM
[23] = test system: SK-MEL-2; assay: NCI one-dose screening, melanoma SK-MEL-2; format: cell-based, human; conditions: 10 μM
[24] = test system: SF-539; assay: NCI one-dose screening, CNS cancer SF-539; format: cell-based, human; conditions: 10 μM
[25] = test system: HL-60, TB; assay: NCI one-dose screening, leukemia HL-60, TB; format: cell-based, human; conditions: 10 μM
[26] = test system: TK-10; assay: NCI one-dose screening, renal cancer TK-10; format: cell-based, human; conditions: 10 μM
[27] = test system: EKVX; assay: NCI one-dose screening, non-small cell lung cancer EKVX; format: cell-based, human; conditions: 10 μM
[28] = test system: SNB-19; assay: NCI one-dose screening, CNS cancer SNB-19; format: cell-based, human; conditions: 10 μM
[29] = test system: PC-3; assay: NCI one-dose screening, prostate cancer PC-3; format: cell-based, human; conditions: 10 μM
[30] = test system: T-47D; assay: NCI one-dose screening, breast cancer T-47D; format: cell-based, human; conditions: 10 μM
[31] = test system: SNB-75; assay: NCI one-dose screening, CNS cancer SNB-75; format: cell-based, human; conditions: 10 μM
[32] = test system: IGROV1; assay: NCI one-dose screening, ovarian cancer IGROV1; format: cell-based, human; conditions: 10 μM
[33] = test system: NCl/ADR-RES; assay: NCI one-dose screening, breast cancer NCl/ADR-RES; format: cell-based, human; conditions: 10 μM; listed under Ovarian cancer
[34] = test system: LOX IMVI; assay: NCI one-dose screening, melanoma LOX IMVI; format: cell-based, human; conditions: 10 μM
[35] = test system: HCC-2998; assay: NCI one-dose screening, colon cancer HCC-2998; format: cell-based, human; conditions: 10 μM
[36] = test system: PRMI-8226 cell line; assay: NCI one-dose screening, leukemia PRMI-8226; format: cell-based, human; conditions: 10 μM
[37] = test system: HS 578-T; assay: NCI one-dose screening, breast cancer HS 578-T; format: cell-based, human; conditions: 10 μM; Breast cancer
[38] = test system: MDA, -MB-435; assay: NCI one-dose screening, breast cancer MDA, -MB-435; format: cell-based, human; conditions: 10 μM; listed under Melanoma
[39] = test system: K562cell line; assay: NCI one-dose screening, leukemia K562; format: cell-based, human; conditions: 10 μM
[40] = test system: human tumor cell lines; assay: NCI one-dose screening, Mean / Delta / Range of growth percent over all tested cell lines; format: cell-based; conditions: 10 μM
[41] = test system: BT-549; assay: NCI one-dose screening, breast cancer BT-549; format: cell-based, human; conditions: 10 μM
[42] = test system: SF-268; assay: NCI one-dose screening, CNS cancer SF-268; format: cell-based, human; conditions: 10 μM
[43] = test system: 786-O; assay: NCI one-dose screening, renal cancer 786-O; format: cell-based, human; conditions: 10 μM
[44] = test system: COLO 205; assay: NCI one-dose screening, colon cancer COLO 205; format: cell-based, human; conditions: 10 μM
[45] = test system: CAKI-1; assay: NCI one-dose screening, renal cancer CAKI-1; format: cell-based, human; conditions: 10 μM
[46] = test system: OVCAR-8; assay: NCI one-dose screening, ovarian cancer OVCAR-8; format: cell-based, human; conditions: 10 μM
[47] = test system: A549/ATCC; assay: NCI one-dose screening, non-small cell lung cancer A549/ATCC; format: cell-based, human; conditions: 10 μM
[48] = test system: UACC-62; assay: NCI one-dose screening, melanoma UACC-62; format: cell-based, human; conditions: 10 μM
[49] = test system: DU145; assay: NCI one-dose screening, prostate cancer DU145; format: cell-based, human; conditions: 10 μM
[50] = test system: HT29; assay: NCI one-dose screening, colon cancer HT29; format: cell-based, human; conditions: 10 μM
[51] = test system: MDA-MB-231/ATCC; assay: NCI one-dose screening, breast cancer MDA-MB-231/ATCC; format: cell-based, human; conditions: 10 μM
[52] = test system: MCF7; assay: NCI one-dose screening, breast cancer MCF7; format: cell-based, human; conditions: 10 μM
[53] = test system: NCI-H460; assay: NCI one-dose screening, non-small cell lung cancer NCI-H460; format: cell-based, human; conditions: 10 μM
[54] = test system: MOLT-4; assay: NCI one-dose screening, leukemia MOLT-4; format: cell-based, human; conditions: 10 μM
[55] = test system: U251; assay: NCI one-dose screening, CNS cancer U251; format: cell-based, human; conditions: 10 μM
[56] = test system: OVCAR-4; assay: NCI one-dose screening, ovarian cancer OVCAR-4; format: cell-based, human; conditions: 10 μM
[57] = test system: NCI-H226; assay: NCI one-dose screening, non-small cell lung cancer NCI-H226; format: cell-based, human; conditions: 10 μM
[58] = test system: SF-295; assay: NCI one-dose screening, CNS cancer SF-295; format: cell-based, human; conditions: 10 μM

What does the source list for `O=C1c2ccccc2C(=O)c2c1cc(N1CCSCC1)c1nsnc21` [C15, 4-(thiomorpholino)anthra[2,1-c][1,2,5] thiadiazol-6,11-dione]?
Growth Percent MALME-3M [1]: 48.56%; Growth Percent RXF 393 [2]: 85.93%; Growth Percent HOP-62 [3]: 76.66%; Growth Percent SN12C [4]: 76.76%; Growth Percent SR [5]: 55.02%; IC50 [6]: > 15 µM; Growth Percent KM12 [7]: 83.12%; Growth Percent MDA-MB-468 [8]: 12.59%; Growth Percent OVCAR-5 [9]: 112.62%; Growth Percent SK-MEL-28 [10]: 90.60%; Growth Percent SK-MEL-5 [11]: 22.81%; Growth Percent OVCAR-3 [12]: 41.52%; Growth Percent UACC-257 [13]: 35.78%; Growth Percent HCT-15 [14]: 61.93%; Growth Percent ACHN [15]: 83.52%; Growth Percent CCRF-CEM [16]: 43.60%; Growth Percent HCT-116 [17]: 88.21%; Growth Percent NCI-H23 [18]: 33.45%; Growth Percent NCI-H522 [19]: 38.70%; Growth Percent M14 [20]: 117.70%; Growth Percent NCI-H322M [21]: 91.69%; Growth Percent UO-31 [22]: 61.00%; Growth Percent SK-MEL-2 [23]: 43.98%; Growth Percent SF-539 [24]: 90.64%; Growth Percent HL-60(TB) [25]: 51.57%; Growth Percent TK-10 [26]: 106.46%; Growth Percent EKVX [27]: 86.63%; Growth Percent SNB-19 [28]: 100.15%; Growth Percent PC-3 [29]: 56.99%; Growth Percent T-47D [30]: 56.78%; Growth Percent SNB-75 [31]: 105.73%; Growth Percent IGROV1 [32]: 75.28%; Growth Percent NCI/ADR-RES [33]: 54.16%; Growth Percent LOX IMVI [34]: 30.16%; Growth Percent HCC-2998 [35]: 107.83%; Growth Percent RPMI-8226 [36]: 56.96%; Growth Percent HS 578T [37]: 84.36%; Growth Percent MDA-MB-435 [38]: 77.03%; Growth Percent K562 [39]: 59.58%; Growth Percent Delta ([40]; delta over all cell lines): 70.03%; Growth Percent Mean ([40]; mean over all cell lines): 70.31%; Growth Percent Range ([40]; range over all cell lines): 119.98%; Growth Percent BT-549 [41]: 104.74%; Growth Percent SF-268 [42]: 95.90%; Growth Percent 786-0 [43]: 120.26%; Growth Percent COLO 205 [44]: 107.31%; Growth Percent CAKI-1 [45]: 76.06%; Growth Percent OVCAR-8 [46]: 41.72%; Growth Percent A549/ATCC [47]: 62.74%; Growth Percent UACC-62 [48]: 83.96%; Growth Percent DU145 [49]: 79.83%; Growth Percent HT29 [50]: 86.91%; Growth Percent MDA-MB-231/ATCC [51]: 45.69%; melting point: 219 to 220 °C; Growth Percent MCF7 [52]: 49.73%; Growth Percent NCI-H460 [53]: 87.46%; Growth Percent MOLT-4 [54]: 42.86%; Growth Percent U251 [55]: 40.24%; Growth Percent OVCAR-4 [56]: 0.28%; Growth Percent NCI-H226 [57]: 78.10%; Growth Percent SF-295 [58]: 94.85%

What does the source list for `Cc1ccccc1Nc1cc2c(c3nsnc13)C(=O)c1ccccc1C2=O` [C61, 4-(o-tolylamino)anthra[2,1-c][1,2,5] thiadiazol-6,11-dione]?
Growth Percent MALME-3M [1]: 64.72%; Growth Percent RXF 393 [2]: 45.35%; Growth Percent HOP-62 [3]: 40.78%; Growth Percent SN12C [4]: 46.94%; Growth Percent SR [5]: −15.27%; IC50 [6]: 0.21 µM; Growth Percent KM12 [7]: 40.14%; Growth Percent OVCAR-5 [9]: 79.06%; Growth Percent SK-MEL-28 [10]: 53.13%; Growth Percent SK-MEL-5 [11]: 8.03%; Growth Percent OVCAR-3 [12]: 22.37%; Growth Percent UACC-257 [13]: 33.79%; Growth Percent HCT-15 [14]: 28.74%; Growth Percent ACHN [15]: 38.07%; Growth Percent CCRF-CEM [16]: 17.83%; Growth Percent HCT-116 [17]: 24.23%; Growth Percent NCI-H23 [18]: 37.57%; Growth Percent NCI-H522 [19]: 12.41%; Growth Percent M14 [20]: 61.89%; Growth Percent NCI-H322M [21]: 64.54%; Growth Percent SK-MEL-2 [23]: 32.64%; Growth Percent SF-539 [24]: 47.90%; Growth Percent HL-60(TB) [25]: 1.11%; Growth Percent TK-10 [26]: 63.75%; Growth Percent EKVX [27]: 62.56%; Growth Percent SNB-19 [28]: 61.89%; Growth Percent SNB-75 [31]: 43.18%; Growth Percent IGROV1 [32]: 25.29%; Growth Percent NCI/ADR-RES [33]: 28.36%; Growth Percent LOX IMVI [34]: 8.17%; Growth Percent HCC-2998 [35]: 57.61%; Growth Percent RPMI-8226 [36]: 16.20%; Growth Percent K562 [39]: 16.97%; Growth Percent SF-268 [42]: 39.57%; Growth Percent 786-0 [43]: 63.62%; Growth Percent COLO 205 [44]: 83.39%; Growth Percent CAKI-1 [45]: 27.55%; Growth Percent OVCAR-8 [46]: 22.87%; Growth Percent A549/ATCC [47]: 27.13%; Growth Percent UACC-62 [48]: 57.68%; Growth Percent HT29 [50]: 52.64%; melting point: 177 to 178 °C; Growth Percent NCI-H460 [53]: 11.85%; Growth Percent MOLT-4 [54]: −11.92%; Growth Percent U251 [55]: 19.18%; Growth Percent OVCAR-4 [56]: −5.69%; Growth Percent NCI-H226 [57]: 47.00%; Growth Percent SF-295 [58]: 34.71%

— patent US8877748B2, “Heterocyclic fused anthraquinone derivatives, manufacturing method and pharmaceutical composition using thereof” (National Defense Medical Center, priority 2012, dated 2014)
